Assay results published in patent US20230364029A1, “POLYMORPHIC FORMS OF (R)-2-HYDROXY-2-METHYL-4-(2,4,5-TRIMETHYL-3,6-DIOXOCYCLOHEXA-1,4-DIENYL)BUTANAMIDE” (PTC THERAPEUTICS, INC., priority 2014, published 2023).
Values after ≈ are worked out from the molar mass of the structure shown.

How the values were obtained:
Format in all cases: physicochemical
[1] = Solubility measurement of Pattern A in 17 solvent systems (gravimetric); conditions: for solubility: thermodynamic from solid
Text: (R)-Trolox was produced from racemic Trolox via methylbenzyl amine double resolution in a manner similar to that described in Example 29 of U.S. Pat. No. 4,026,907. This (R)-Trolox was used to synthesize the (R)-2-hydroxy-2-methyl-4-(2,4,5-trimethyl-3,6-dioxocyclohexa-1,4-dienyl)butanamide starting material. This starting material, designated as Pattern A, was used for the solubility measurement.
Excess amount of solid was slurried in 17 solvent systems having diverse properties for minimum of 3 days. The slurry was centrifuged and the clear solution was used for gravimetric method. […] Limited solubility was observed from heptane, toluene, MTBE, water and 0.5% Methyl Cellulose in water at ambient and elevated temperatures. Table 9 presents the measured solubility data. A ±10% error is expected.

[2] = Moisture sorption analysis; conditions: for Hygroscopicity: moisture sorption, 0-95% RH cycles
Description: (§1) Moisture sorption analysis of the starting material was performed by equilibrating the sample at 25° C. and 50% RH to simulate ambient lab conditions. Humidity then decreased to 0% RH, increased from 0 to 95% RH, reduced from 95 to 0% RH, increased from 0 to 95 %RH and then decreased from 95 to 50% RH. Each point represents the estimated asymptotic weight for each humidity or weight. […] No hysteresis was observed upon desorption (FIG. 14).
as §1, with “of Pattern E (from” for “of”, “300 mg scale lot)” for “starting material”, “Humidity was” for “Humidity”, “19).” for “14).”
Moisture sorption analysis of Pattern C (300 mg lot) was performed by equilibrating the sample at 25° C. and 50% RH to simulate ambient lab conditions. Humidity was then decreased to 0% RH, increased from 0 to 95% RH, reduced from 95 to 0% RH, increased from 0 to 95%RH and then decreased from 95 to 50% RH. Each point represents the estimated asymptotic weight for each humidity or weight. […] This increased the total water to about 6% which is the water content of mono-hydrate. However, upon reducing the relative humidity, the solid lost its water. Therefore this could be a channel hydrate. No hysteresis was observed upon desorption (FIG. 24).
as §1, with “Pattern B (300 mg lot)” for “the starting material”, “The major weight loss at the beginning” for “No hysteresis”, “due to loss of solvent.” for “observed upon desorption (FIG. 14).”
as §1, with “Pattern F (from Example 6)” for “the starting material”, “Humidity was” for “Humidity”, “The major weight loss at the beginning is due to loss of solvent.” for “No hysteresis was observed upon desorption (FIG. 14).”

Grinding experiments = conditions: for XRPD after grinding: RT; for Stability of crystal form to grinding: light grinding, dry and with IPA or water
Description: Grinding experiments of the starting material were performed by dry grinding and solvent drop grinding in IPA and water utilizing a mortar and pestle (Table 18).

[3] = Aqueous solubility (HPLC); conditions: water, thermodynamic from solid, ambient conditions, 24 hours of equilibration
Description: Aqueous solubility of Patterns A, B, C, E and F was performed using an Agilent HPLC system. Approximately 10-20 mg of each form was charged to a 2 mL glass vial loaded with a magnetic stir bar and added 2 mL of water. The samples were allowed to stir overnight at ambient conditions. Following 24 hours of equilibration the samples were centrifuged and decanted into HPLC vials. A calibration curve was generated based on Pattern A in MeOH at 0.05, 0.1, 0.5 and 1.0 mg/mL. Following injection of the standard curve, the samples were run as is.

[4] = 7 day elevated aqueous humidity studies; conditions: for XRPD [Pattern] 7 day: form after 7 days
Description: 7 day elevated aqueous humidity experiments were performed on all Patterns A, B, C, D, E and F at ambient conditions at > 95%RH (Table 17). Approximately 30 mg of each pattern was weighed into a 4 ml glass vial. The uncovered 4 ml vial was inserted into a 20 ml scintillation vial half filled with water and capped. Following 24 hours of equilibration, visual inspection was performed to check for changes in physical appearance, however no change was observed.

[5] = Short term slurry experiments (form by XRPD); conditions: slurried in most of 17 solvents, min. 3 days
Description: Short term slurry experiments of the starting material, Pattern A, were performed for a minimum of 3 days in 17 different solvent systems having diverse properties at two different temperatures (25 and 50° C.). A 48 position Chemglass reaction block was used for heating and stirring the slurries which were in 2 mL HPLC vials. After the due time, vials were centrifuged and the wet solids were used for X-ray diffraction.

CC1=C(C)C(=O)C(CC[C@@](C)(O)C(N)=O)=C(C)C1=O [Pattern A, (R)-2-hydroxy-2-methyl-4-(2,4,5-trimethyl-3,6-dioxocyclohexa-1,4-dienyl)butanamide]
Solubility in a simple detergent ([1]; 0.5% MC/2% Tween 80): increased solubility | solubility ([1]; 0.5% methyl cellulose in water, 25 °C, aqueous with cosolvent or surfactant or cyclodextrin, 0.5% MC in Water, part of the concentration relates to solvent constituents): 7 mg/mL (≈ 26.4 mM) | solubility ([1]; 0.5% methyl cellulose in water, 50 °C, aqueous with cosolvent or surfactant or cyclodextrin, 0.5% MC in Water, part of the concentration relates to solvent constituents): 4 mg/mL (≈ 15.1 mM) | solubility ([1]; 0.5% methyl cellulose/2% Tween 80, 25 °C, aqueous with cosolvent or surfactant or cyclodextrin, 0.5% MC/2% Tween 80, 25° C., part of the concentration relates to solvent constituents): 26 mg/mL (≈ 98 mM) | solubility ([1]; 0.5% methyl cellulose/2% Tween 80, 50 °C, aqueous with cosolvent or surfactant or cyclodextrin, 0.5% MC/2% Tween 80, 50° C., part of the concentration relates to solvent constituents): 30 mg/mL (≈ 113 mM) | solubility ([1]; 2-MeTHF, 25 °C, organic solvent or mixture, gravimetric): 35 mg/mL (≈ 132 mM) | solubility ([1]; 2-MeTHF, 50 °C, organic solvent or mixture, gravimetric): 59 mg/mL (≈ 222 mM) | solubility ([1]; 4% DMA in PBS, 25 °C, aqueous buffer, part of the concentration relates to solvent constituents): 10 mg/mL (≈ 37.7 mM) | solubility ([1]; 4% DMA in PBS, 50 °C, aqueous buffer, part of the concentration relates to solvent constituents): 13 mg/mL (≈ 49 mM) | solubility ([1]; EtOAc, 25 °C, organic solvent or mixture, gravimetric): 22 mg/mL (≈ 82.9 mM) | solubility ([1]; EtOAc, 50 °C, organic solvent or mixture, gravimetric): 38 mg/mL (≈ 143 mM) | solubility ([1]; EtOH, 25 °C, organic solvent or mixture, gravimetric): 40 mg/mL (≈ 151 mM) | solubility ([1]; EtOH, 50 °C, organic solvent or mixture, gravimetric): > 121 mg/mL | Solubility in polar and non-polar solvents ([1]; Example 2, summary statement): soluble in a variety of polar and non-polar solvents | solubility ([1]; IPA, 25 °C, organic solvent or mixture, gravimetric): 20 mg/mL (≈ 75.4 mM) | solubility ([1]; IPA, 50 °C, organic solvent or mixture, gravimetric): 53 mg/mL (≈ 200 mM) | solubility ([1]; IPAc, 25 °C, organic solvent or mixture, gravimetric): 13 mg/mL (≈ 49 mM) | solubility ([1]; IPAc, 50 °C, organic solvent or mixture, gravimetric): 16 mg/mL (≈ 60.3 mM) | solubility ([1]; MTBE, 25 °C, organic solvent or mixture, gravimetric): 10 mg/mL (≈ 37.7 mM) | solubility ([1]; MTBE, 50 °C, organic solvent or mixture, gravimetric): 16 mg/mL (≈ 60.3 mM) | solubility ([1]; MeCN, 25 °C, organic solvent or mixture, gravimetric): 20 mg/mL (≈ 75.4 mM) | solubility ([1]; MeCN, 50 °C, organic solvent or mixture, gravimetric): 38 mg/mL (≈ 143 mM) | solubility ([1]; MeOH, 25 °C, organic solvent or mixture, gravimetric): > 101 mg/mL | solubility ([1]; MeOH, 50 °C, organic solvent or mixture, gravimetric): > 112 mg/mL | solubility ([1]; THF, 25 °C, organic solvent or mixture, gravimetric): 28 mg/mL (≈ 106 mM) | solubility ([1]; THF, 50 °C, organic solvent or mixture, gravimetric): 33 mg/mL (≈ 124 mM) | solubility ([1]; acetone, 25 °C, organic solvent or mixture, gravimetric): 39 mg/mL (≈ 147 mM) | solubility ([1]; acetone, 50 °C, organic solvent or mixture, gravimetric): 90 mg/mL (≈ 339 mM) | solubility ([1]; heptane, 25 °C, organic solvent or mixture, slurry min. 3 days, gravimetric): 6 mg/mL (≈ 22.6 mM) | solubility ([1]; heptane, 50 °C, organic solvent or mixture, slurry min. 3 days, gravimetric): 6 mg/mL (≈ 22.6 mM) | solubility ([1]; toluene, 25 °C, organic solvent or mixture, gravimetric): 3 mg/mL (≈ 11.3 mM) | solubility ([1]; toluene, 50 °C, organic solvent or mixture, gravimetric): < 18 mg/mL | solubility ([1]; water, 25 °C, ^1Water (second water line), gravimetric): 2 mg/mL (≈ 7.54 mM) | solubility ([1]; water, 25 °C, gravimetric): 3 mg/mL (≈ 11.3 mM) | solubility ([1]; water, 50 °C, ^1Water (second water line), gravimetric): 6 mg/mL (≈ 22.6 mM) | solubility ([1]; water, 50 °C, gravimetric): 3 mg/mL (≈ 11.3 mM) | XRPD following moisture sorption analysis ([2]; after 0-95% RH cycles at 25° C.): consistent with the starting material, Pattern A | Water adsorbed ([2]; at 90 %RH, 25° C.): 0.1% | Hygroscopicity ([2]; 25° C.): non-hygroscopic | Hygroscopicity ([2]; 25° C., listed as Form I): non-hygroscopic | Hysteresis upon desorption ([2]; moisture sorption-desorption, 25° C.): No hysteresis | XRPD after grinding (Grinding experiments; dry grinding, mortar and pestle): Pattern A | Stability of crystal form to grinding (Grinding experiments): no change in the crystal form | Stability of crystal form to grinding (Grinding experiments; listed as Form I): stability to grinding | XRPD after grinding (Grinding experiments; solvent drop grinding, H2O (2 drops)): Pattern A | XRPD after grinding (Grinding experiments; solvent drop grinding, IPA (2 drops)): Pattern A | solubility at 24 h [3]: 1.74 mg/mL (≈ 6.56 mM) | Visual Observations 1 day ([4]; > 95 %RH at Ambient): Yellow solids | Visual Observations 7 day ([4]; > 95 %RH at Ambient): Yellow Solids | XRPD [Pattern] 7 day ([4]; > 95 %RH at Ambient): no change in form | XRPD [Pattern] 7 day ([4]; > 95 %RH at Ambient, listed as A): Crystalline [Pattern A] | Stability to elevated humidity ([4]; Example 8, summary statement): stability to elevated humidity | Stability of form in short term slurry [5]: relatively stable
